# Measured values taken from patent publication US20250368664A1, “SURFACTANTS HAVING PEFA COMPOUNDS AND METHODS OF USE THEREOF” (Ruby Bio Inc., priority 2022, published 2025).
# Experiment: Solubility of nonionic surfactant in SDBS
# Type: physicochemical
# Settings: in combination with SDBS at the stated ratio
substance,measurement,value
cetearyl glucoside [CGlucoside],solubility in SDBS,insoluble
